This is an account of results in US8785388B2, “TAT-BH3 methods for treating arthritis” (Saint Louis University, priority 2007, dated 2014).

Series [1] deals with cells that express high levels of Mcl-1. To be noted: literature statement; cited from earlier work.
The next series has as its system platelets. The settings on record: literature statement; cited from earlier work.
Series [2] relates to K/B×N serum transfer-induced arthritis. The experiment in a line: K/B×N serum transfer-induced arthritis, ankle circumference (joint swelling). The class given is in vivo, mice. The text has this:
The seven-week-old progeny from homozygous KRN TCR transgenic mice (C57BL/6 background) crossed with non-obese diabetes (NOD) mice (K/B×N) were euthanized, peripheral blood was isolated, and serum were collected and pooled. One hundred and fifty microliters of K/B×N serum were intraperitoneally injected on each flank of 6-week old wt mice.
(§1) At each time point and prior to euthanasia, the degree of arthritis as indicated by joint swelling was quantitated by measuring two perpendicular diameters of the ankles using a caliper (Lange Caliper: Cambridge Scientific Industries, Cambridge Mass.). Joint circumference was calculated using the geometric formula of ellipse circumference (2πX √(a^2+b^2)/2). Following euthanasia, serum was isolated from peripheral blood by cardiac stick and ankle joints were removed. One of the ankle joints was fixed in 10% neutral buffered formalin for 24 hours, decalcified in EDTA-decalcification buffer for two weeks, embedded in paraffin, and sectioned. The other ankle joint was placed in liquid nitrogen, grounded into a fine powder by mortal and pestle, digested in protein lysis buffer ([…], 0.5% NP-40, 50 mM Tris, and 2 mM EDTA) in the presence of phosphatase and protease inhibitors, and homogenized on ice for 20 seconds. To examine any toxicity due to systemic delivery of TAT-Bim peptides, alkaline phosphatase (ALP), […] (AST), alanine aminotransferase (ALT), and blood urea nitrogen levels were measured.
Therefore, peptides to the BH3 domain of Bim were used that are fused to polycationic peptide derived from HIV-1 TAT. These peptides have shown to activate Bak and Bax, suppress Bcl-2 and Mcl-1, induce mitochondrial permeability, and release mitochondrial cytochrome c. Mice were intraperitoneally injected with K/B×N serum to induce the effector phase of inflammatory arthritis.

The test system is the same in series [3]. Put plainly: Histopathological scoring of ankle sections (H&E, safranin O/methyl green). The settings on record: saline vs TAT-inactive BH3. The class given is in vivo, mice. The method, then:
(§2) Paraffin embedded ankle or liver sections were stained with hematoxylin and eosin (H&E), Safranin O and methyl green. Histopathological scoring was performed and ankle sections were evaluated by examining at least 3 sections/ankle and 3 fields/section at 400× magnification. H&E ankle sections were scored on a 0-5 scale for inflammation, with 0=normal, 1=minimal infiltration, 2=mild infiltration, 3=moderate infiltration, […], mad 5=severe infiltration. Bone erosion was scored on a 0-5 scale by viewing H&E ankle sections, with 0=no or normal bone resorption, 1=small areas of resorption, 2=more numerous areas of resorption, 3=obvious resorption, 4=full thickness defects in the bone without distortion of the profile, 5=full thickness defects in the bone with distortion of the profile. H&E ankle stained sections were scored on a 0-5 scale for pannus formation, with 0=no pannus formation, 1=minimal pannus formation, 2=mild pannus formation, 3=moderate pannus formation, 4=marked pannus formation, and 5=severe pannus formation. H&E and Safranin 0 and methyl green sections were scored on a 0-5 scale for cartilage damage, with 0=no damage, 1-2=superficial cartilage destruction, 3-4=cartilage destruction to middle zone, 5=cartilage destruction to tide mark. Polymorphonuclear (PMN) leukocyte infiltration: 0=no PMNs, 1=rare scattered PMNs, 2=more frequent scattered PMNs, 3=small clusters of PMNs, 4=larger clusters of PMNs, mad 5=sheets of PMNs (abscess). Histopathological scoring was conducted on an Olympus BX40 microscope (1000×). Photographs were taken on a Nikon microscope equipped with the Nikon digital camera DMX 1200.
To accurately assess the degree of inflammation and destruction of cartilage and bone, ankle sections were examined using a histopathological scoring system on hematoxylin and eosin (H& E) or safranin O-methyl green stained ankle sections.

Series [4] deals with IL-1β, TNFα, MCP-1, KC, MMP-3. The experiment in a line: ELISA of pro-inflammatory molecules in ankle extracts. To be noted: ankle joints, seven days post-serum transfer; mean ± standard error. The arrangement: IL-1β / TNFα / MCP-1 / KC / MMP-3: unit not given here. The format is in vivo, mouse. The procedure:
as §1
For detection of mouse IL-1β, TNFα, MCP-1, KC, or MMP-3 in ankle extracts, sandwich ELISAs were performed according to the manufacturer's instructions (R & D Systems, Minneapolis, Minn.). The sensitivity for all cytokines was 15.6 pg/mL for IL-1β and KC, 7.813 pg/mL for TNFα and MCP-1, and 0.312 ng/mL for MMP3. ELISAs were quantitated by absorbance at 450 nm on a microplate reader (BioRad, Hercules, Calif.). Data obtained using ELISA on ankle extracts were normalized by the total protein concentration (μg/μL) for each individual ankle extract.
Mice were euthanized at seven days post-serum transfer. Ankle joints from each mouse were isolated, snap frozen, grounded into a fine powder, lysed, and examined for IL-1β, TNFα, MCP-1, KC, and MMP-3 production using an ELISA. Data are shown as μg/μL per joint. Values represent the mean±standard error, which were compared by Student's t-test.

The test system of the next series is IL-1β, TNFα, MCP-1, KC. Put plainly: Circulating cytokine levels in serum. The format is in vivo, mice. To be noted: between saline, TAT-inactive BH3 and TAT-BH3 groups. The method, then: as §1
TAT-BH3 peptides treatment reduces the numbers of myeloid cells in arthritic joints. […] To this end, the numbers of polymorphonuclear cell and macrophages in saline and BH3 peptide arthritic mice were quantified. […]

Series [5] can be described thus: Toxicity: serum ALP, AST, ALT, blood urea nitrogen and liver histology in arthritic mice. The format is in vivo. To be noted: liver sections of arthritic mice. The method, then:
as §1, §2

For the next series, the system named is peripheral blood cells. Put plainly: Peripheral blood cell counts (flow cytometry, hematology analyzer). The class given is in vivo, mice. The settings on record: peripheral blood, mean ± standard error. The method, then: Peripheral blood and bone marrow were isolated from mice following euthanasia. Total leukocyte numbers were determined using an automated hematology analyzer ABX Pentra 60 (Diamond Diagnostics, Inc, Holliston, Mass.). The red blood cells in peripheral blood were lysed and the remaining cells were fixed with BD FACS lysing solution (BD Biosciences, Pharmingen) following incubation with antibodies. Bone marrow cells were isolated by flushing Dulbecco's Modified Eagle Medium (DMEM) (Gibco, Grand Island, N.Y.) through the tibias and red blood cells were lysed with BD PharM Lyse (BD Biosciences, Pharmingen) prior to incubation with antibodies. Cells with incubated with Fc Block (BD Biosciences, Pharmingen) then stained with fluorochrome conjugated antibodies to CD45, CD11b, Gr-1, CD62L, Ly-6C, Ly-6G, CD31 (BD Biosciences, Pharmingen) or isotype control antibodies for 30 minutes. Cells were acquired on a BD LSRII (BD Biosciences, Pharmingen) using Diva Software at the Saint Louis University Core Flow Cytometry Facility. All analysis was performed using FlowJo software (Tree Star Inc.).
Peripheral blood was isolated by cardiac sticks. Cells were blocked for 10 minutes with Fc block and then stained with anti-CD45, anti-CD19, anti-CD3, anti-CD4, anti-CDS, anti-CD11b, anti-Gr-1, and anti-CD62L antibodies for 30 minutes. Platelets and RBCs were determined on an automated hematology analyzer ABX Pentra 60. Following incubation with antibodies red blood cells were lysed and cells were fixed with Becton Dickenson FACS lysing solution.

Square brackets hold non-standard residues; d marks the D form. Peptide text beside a SMILES is read from it. Orn = NCCC[C@H](N)C(=O)O

With `CN(C)CC[C@H](CSc1ccccc1)Nc1ccc(S(=O)(=O)NC(=O)c2ccc(N3CCN(Cc4ccccc4-c4ccc(Cl)cc4)CC3)cc2)cc1[N+](=O)[O-]` [ABT-737], the “effect on cells that express high levels of Mcl-1” value in series [1] is “no effect”. In addition, the “effect on platelet numbers” value in the series on platelets is on record as “dramatic effect”.
`CC[C@H](C)[C@H](NC(=O)[C@H](CCCNC(=N)N)NC(=O)[C@H](CCCNC(=N)N)NC(=O)[C@H](C)NC(=O)[C@H](CCC(=O)O)NC(=O)[C@H](CCC(N)=O)NC(=O)[C@H](C)NC(=O)[C@@H](NC(=O)[C@H](Cc1c[nH]c2ccccc12)NC(=O)[C@@H](NC(=O)[C@H](CCC(=O)O)NC(=O)[C@H](CCCNC(=N)N)NC(=O)[C@H](CCCNC(=N)N)NC(=O)[C@H](CCCNC(=N)N)NC(=O)[C@H](CCCN)NC(=O)[C@H](CCCNC(=N)N)NC(=O)[C@H](CCCNC(=N)N)NC(=O)[C@H](CCCCN)NC(=O)[C@H](CCCCN)NC(=O)[C@H](CCCNC(=N)N)NC(C)=O)[C@@H](C)CC)[C@@H](C)CC)C(=O)NCC(=O)N[C@@H](C)C(=O)N[C@@H](CCC(=O)O)C(=O)N[C@@H](Cc1ccccc1)C(=O)N[C@@H](CC(N)=O)C(=O)N[C@@H](C)C(=O)N[C@@H](Cc1ccc(O)cc1)C(=O)N[C@@H](Cc1ccc(O)cc1)C(=O)N[C@@H](C)C(=O)N[C@@H](CCCNC(=N)N)C(=O)O` [reference compound] (Ac-RKKRR[Orn]RRREIWIAQEARRIGAEFNAYYAR-OH): the “change in ankle circumference” value in series [2] (day 2 after K/B×N serum, 2 mg/kg i.p.) is reported as 1.6 mm. The “difference in arthritis (ankle circumference) versus saline” value in series [2] (saline vs TAT-inactive BH3) was “no statistical difference”. In addition, in series [3], the “difference in histological scores versus saline” value is listed as “no statistical difference”. In series [4], this compound had an IL-1β of 824 ± 103, a KC of 428 ± 45, an MCP-1 of 196 ± 17 and an MMP-3 of 17 ± 4. In series [4], this compound had a TNFα of 4.4 ± 0.3. For the same compound, the “circulating levels of IL-1β, TNFα, MCP-1, and KC in serum” value in the series on IL-1β, TNFα, MCP-1, KC is listed as “no differences”. Besides, in series [5], the liver histology result is given as “no gross histologic abnormalities”. Besides, in the series on peripheral blood cells (hematology analyzer), the Platelets is listed as 1305.75 ± 70.03 (1E6) and the RBCs was 9.84 ± 0.22 (1E6). In addition, in the series on peripheral blood cells, the “B-cells+” value is reported as 2.38 ± 0.21 (1E6), the “CD4+ T-cells” value was 1.15 ± 0.10 (1E6), the “CD8+ T-cells” value is listed as 0.72 ± 0.06 (1E6) and the Inflammatory monocytes is recorded as 0.25 ± 0.03 (1E6). In the series on peripheral blood cells, the N-K-cells was 0.19 ± 0.13 (1E6), the “Resident Monocytes” value is given as 0.14 ± 0.01 (1E6), the T-cells is 1.94 ± 0.17 (1E6) and the “Total Leukocytes” value was 6.1 ± 0.18 (1E6).
